# Assay results as given in patent US20260167637A1, “NLRP3 INFLAMMASOME INHIBITOR AND USE THEREOF” (TransThera Sciences (Nanjing), Inc., priority 2022, published 2026).
# Target: T1, THP-1 cell NLRP3 (Homo sapiens, UniProt Q96P20)
# T1 construct: endogenous in cells; host or cells: THP-1 cells, PMA-differentiated, stimulated with LPS and nigericin
# Experiment: Inhibitory activity against cell NLRP3 inflammasomes in THP-1 cells (LPS + nigericin, ELISA of supernatant)
# Format: cell-based
# Settings: PMA-differentiated THP-1 cells, LPS 500 ng/mL 3 h, compound 1 h, nigericin 30 min; human IL-10 (so in the source) in supernatant by ELISA
# Experimental: Experimental Example 1: Assay for Inhibitory Activity of Compounds Disclosed Herein Against Cell NLRP3 Inflammasomes
# Test substances: The compounds of the present disclosure, prepared according to the methods described in the examples.
# THP-1 is an immortalized human […] cell line.
# Instrument: microplate reader (made by PE)
# Assay Method: 1. THP-1 cells were cultured in 1640 complete medium (500 mL of 1640+56 mL of FBS+560 μL of 1000×P/S+2 μL of mercaptoethanol), and cells at passages 3-20 were used.
# 2. Culture plate coating: 100 μL of polylysine solution was added to a 96-well cell culture plate. After 30 min of incubation at 37° C., the solution was discarded, and the plate was washed with PBS twice for later use.
# 3. Induction of THP-1 differentiation: THP-1 cells were resuspended in an appropriate amount of complete medium containing 10 ng/mL PMA to form a cell suspension with a density of 5×10^5 cells/mL. The suspension was added to the 96-well plate at 100 μL/well, and the plate was incubated overnight in a 37° C. carbon dioxide cell incubator for 16 h.
# 4. Stimulation of THP-1: • a. Serum-free THP-1 culture medium containing LPS was added, with the final concentration being 500 ng/mL. The plate was incubated in a 37° C. carbon dioxide cell incubator for 3 h. • b. Mother liquors of the compounds to be tested with gradient concentrations were prepared with DMSO, added to the cells, and well mixed. Dilution was finally performed in a 1:1000 ratio. The plate was incubated in a 37° C. carbon dioxide cell incubator for 1 h. • c. Nigericin was added to each well, with the final concentration being […]. The plate was incubated in a carbon dioxide cell incubator at 37° C. for 30 min. • d. The medium in the wells was transferred to a new culture plate, and after 5 min of centrifugation at 3000 rpm, the supernatant was transferred to a new 96-well plate. • e. The content of human […] in the collected cell culture supernatant samples was determined with a commercial ELISA kit by following the instructions.
# T1 sequence (Q96P20 whole entry): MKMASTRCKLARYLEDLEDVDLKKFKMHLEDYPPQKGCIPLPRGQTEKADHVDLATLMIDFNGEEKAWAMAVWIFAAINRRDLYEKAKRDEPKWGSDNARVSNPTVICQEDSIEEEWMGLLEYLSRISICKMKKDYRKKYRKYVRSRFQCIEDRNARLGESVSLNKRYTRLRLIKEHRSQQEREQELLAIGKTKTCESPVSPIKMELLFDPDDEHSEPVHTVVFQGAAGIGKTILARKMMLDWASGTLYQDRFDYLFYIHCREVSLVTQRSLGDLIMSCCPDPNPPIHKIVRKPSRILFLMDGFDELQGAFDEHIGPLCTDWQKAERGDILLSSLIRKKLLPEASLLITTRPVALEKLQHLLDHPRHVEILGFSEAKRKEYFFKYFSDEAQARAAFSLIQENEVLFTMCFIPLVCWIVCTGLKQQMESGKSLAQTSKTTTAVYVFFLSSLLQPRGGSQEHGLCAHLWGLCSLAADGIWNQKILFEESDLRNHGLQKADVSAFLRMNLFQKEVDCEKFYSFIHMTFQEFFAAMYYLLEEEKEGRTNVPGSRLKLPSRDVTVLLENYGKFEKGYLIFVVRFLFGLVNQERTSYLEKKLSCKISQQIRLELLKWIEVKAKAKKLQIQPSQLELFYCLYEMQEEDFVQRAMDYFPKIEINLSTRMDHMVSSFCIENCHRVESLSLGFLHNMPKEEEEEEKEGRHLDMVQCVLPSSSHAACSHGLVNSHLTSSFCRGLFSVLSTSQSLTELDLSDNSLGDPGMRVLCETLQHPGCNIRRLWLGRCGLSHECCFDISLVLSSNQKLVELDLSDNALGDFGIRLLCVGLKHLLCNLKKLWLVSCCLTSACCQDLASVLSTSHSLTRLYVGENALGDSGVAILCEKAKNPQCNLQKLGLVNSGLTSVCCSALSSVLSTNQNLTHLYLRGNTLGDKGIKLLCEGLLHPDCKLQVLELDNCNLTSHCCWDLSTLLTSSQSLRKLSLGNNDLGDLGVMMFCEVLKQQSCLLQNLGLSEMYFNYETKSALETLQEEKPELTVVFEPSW
row,Compound,IC50
1,"CC#Cc1ccc(-c2nnc(N[C@@H]3CCCN(CCO)C3)c(=O)n2C)c(O)c1 [Compound 33, (R)-3-(2-hydroxy-4-(prop-1-yn-1-yl)phenyl)-6-((1-(2-hydroxyethyl)piperidin-3-yl)amino)-4-methyl-1,2,4-triazin-5(4H)-one]",11.5 nM
2,"CC#Cc1ccc(-c2nnc(N[C@@H]3CCCN(CCCO)C3)cc2C)c(O)c1 [Compound 35, (R)-2-(6-((1-(3-hydroxypropyl)piperidin-3-yl)amino)-4-methylpyridazin-3-yl)-5-(prop-1-yn-1-yl)phenol]",3.3 nM
3,"CC#Cc1ccc(-c2nnc(N[C@@H]3CCCN(CC(C)(C)O)C3)cc2C)c(O)c1 [Compound 36, (R)-2-(6-((1-(2-hydroxy-2-methylpropyl)piperidin-3-yl)amino)-4-methylpyridazin-3-yl)-5-(prop-1-yn-1-yl)phenol]",12.7 nM
4,"CC#Cc1ccc(-c2nnc(N[C@@H]3CCCN(C(C)CO)C3)cc2C)c(O)c1 (stereo partly drawn) [Compound 37, 2-(6-(((3R)-1-(1-hydroxypropan-2-yl)piperidin-3-yl)amino)-4-methylpyridazin-3-yl)-5-(prop-1-yn-1-yl)phenol]",0.8 nM
5,"Cc1cc(N[C@@H]2CCCN(C)C2)nnc1-c1ccc(C=C(F)F)cc1O [Compound 39, (R)-5-(2,2-difluorovinyl)-2-(4-methyl-6-((1-methylpiperidin-3-yl)amino)pyridazin-3-yl) phenol]",0.3 nM
6,"CC#Cc1ccc(-c2nnc(N[C@@H]3CCCN(C)C3)n3nccc23)c(O)c1 [Compound 40, (R)-2-(7-((1-methylpiperidin-3-yl)amino)pyrazolo[1,5-d][1,2,4]triazin-4-yl)-5-(prop-1-yn-1-yl)phenol]",12.8 nM
7,"C#Cc1cc(C)c(-c2ccc(N[C@@H]3CCCN(C)C3)nn2)c(O)c1 [Compound 41, (R)-5-ethynyl-3-methyl-2-(6-((1-methylpiperidin-3-yl)amino)pyridazin-3-yl)phenol]",0.3 nM
8,"[2H]C([2H])([2H])N1CCC[C@@H](Nc2nnc(-c3ccc(C#C)cc3O)c(C3CC3)n2)C1 [Compound 87, (R)-2-(5-cyclopropyl-3-((1-(methyl-d3)piperidin-3-yl)amino)-1,2,4-triazin-6-yl)-5-ethynylphenol]",0.7 nM
9,"C#Cc1ccc(-c2nnc(N[C@@H]3CCCN(CC)C3)nc2C)c(O)c1 [Compound 91, (R)-2-(3-((1-ethylpiperidin-3-yl)amino)-5-methyl-1,2,4-triazin-6-yl)-5-ethynylphenol]",0.2 nM
10,"C#Cc1ccc(-c2nnc(N[C@@H]3CCCN(CC)C3)nc2C2CC2)c(O)c1 [Compound 92, (R)-2-(5-cyclopropyl-3-((1-ethylpiperidin-3-yl)amino)-1,2,4-triazin-6-yl)-5-ethynylphenol]",0.5 nM
11,"C#Cc1ccc(-c2nnc(N[C@@H]3CCCN(C4CC4)C3)cc2C)c(O)c1 [Compound 94, (R)-2-(6-((1-cyclopropylpiperidin-3-yl)amino)-4-methylpyridazin-3-yl)-5-ethynylphenol]",0.3 nM
12,"C#Cc1ccc(-c2nnc(N[C@@H]3CCCN(C4CC4)C3)cc2C2CC2)c(O)c1 [Compound 95, (R)-2-(4-cyclopropyl-6-((1-cyclopropylpiperidin-3-yl)amino)pyridazin-3-yl)-5-ethynylphenol]",0.4 nM
13,"C#Cc1ccc(-c2nnc(N[C@@H]3CCCN(C4CC4)C3)nc2C)c(O)c1 [Compound 96, (R)-2-(3-((1-cyclopropylpiperidin-3-yl)amino)-5-methyl-1,2,4-triazin-6-yl)-5-ethynylphenol]",0.5 nM
14,"C#Cc1ccc(-c2nnc(N[C@@H]3CCCN(C4CC4)C3)nc2C2CC2)c(O)c1 [Compound 97, (R)-2-(5-cyclopropyl-3-((1-cyclopropylpiperidin-3-yl)amino)-1,2,4-triazin-6-yl)-5-ethynylphenol]",1 nM
15,"C#Cc1ccc(-c2nnc(N[C@@H]3CCCN(C4CC4)C3)c(=O)n2C)c(O)c1 [Compound 98, (R)-6-((1-cyclopropylpiperidin-3-yl)amino)-3-(4-ethynyl-2-hydroxyphenyl)-4-methyl-1,2,4-triazin-5(4H)-one]",5 nM
